Values quoted from earlier work in paper PMC6156206 (Molecular Imaging, 2018).

How the values were obtained:
[1] = system: BRAF^V600E-mutant melanoma xenografts; conditions: oral, 30-100 mg/kg, twice daily, without any adverse effects
[2] = phase 1/1b safety profile analysis

For `COc1cc2ncnc(Oc3cccc(NC(=O)Nc4cc(C(C)(C)C(F)(F)F)on4)c3)c2cc1OC.Cl` [CEP-32496, 1-(3-(6,7-dimethoxyquinazolin-4-yloxy)phenyl)-3-(5-(1,1,1-trifluoro-2-methylpropan-2-yl)isoxazol-3-yl)urea hydrochloride], the “Antitumor effect in xenografts” value [1] is given as “tumor stasis and regression” and the “Tolerable dose in patients” value [2] is given as “up to 350 mg/d”.
For `CNC(=O)c1cc(Oc2ccc(NC(=O)Nc3ccc(Cl)c(C(F)(F)F)c3)cc2)ccn1` [sorafenib], the “Substrate for the drug efflux transporter system P-gp/BCRP” value (P-gp/BCRP) is listed as “substrate for the drug efflux transporter system P-gp/BCRP”.
